{"source": "patent US20220249463A1", "about": "“METHODS OF ALTERING CARDIAC REMODELING USING COMPOUNDS THAT PROMOTE GLUCOSE OXIDATION” (IMBRIA PHARMACEUTICALS, INC., priority 2019, published 2022)", "key": {"Glutamate, AMPA": {"test_system": "Glutamate, AMPA", "format": "binding, rat", "conditions": "10 μM CV-8814"}, "[1]": {"test_system": "GABAA, Ro-15-1788, Hippocampus", "format": "binding, rat", "conditions": "10 μM CV-8814"}, "TAC mice [2]": {"test_system": "TAC mice", "experiment": "TAC mice, six weeks treatment: heart weight and heart weight/body weight", "format": "in vivo", "conditions": "6 weeks"}, "Nicotinic Acetylcholine": {"test_system": "Nicotinic Acetylcholine", "format": "binding, human", "conditions": "10 μM CV-8814"}, "[3]": {"test_system": "Calcium Channel L-Type, Phenylalkylamine", "format": "binding, rat", "conditions": "10 μM CV-8814"}, "[4]": {"test_system": "GABAA, Flunitrazepam, Central", "format": "binding, rat", "conditions": "10 μM CV-8814"}, "[5]": {"test_system": "ATPase, Na^+/K^+, pig heart", "format": "biochemical", "conditions": "10 μM CV-8814"}, "Phosphodiesterase PDE3": {"test_system": "Phosphodiesterase PDE3", "format": "biochemical, human", "conditions": "10 μM CV-8814"}, "Transporter, Adenosine": {"test_system": "Transporter, Adenosine", "format": "binding, guinea pig", "conditions": "10 μM CV-8814"}, "[6]": {"test_system": "Glutamate, NMDA, Phencyclidine", "format": "binding, rat", "conditions": "10 μM CV-8814"}, "[7]": {"test_system": "Calcium Channel L-Type, Benzothiazepine", "format": "binding, rat", "conditions": "10 μM CV-8814"}, "Potassium Channel [KATP]": {"target": "Potassium Channel [KATP] (Cricetus cricetus, UniProt Q09427)", "sequence (Q09427 whole entry)": "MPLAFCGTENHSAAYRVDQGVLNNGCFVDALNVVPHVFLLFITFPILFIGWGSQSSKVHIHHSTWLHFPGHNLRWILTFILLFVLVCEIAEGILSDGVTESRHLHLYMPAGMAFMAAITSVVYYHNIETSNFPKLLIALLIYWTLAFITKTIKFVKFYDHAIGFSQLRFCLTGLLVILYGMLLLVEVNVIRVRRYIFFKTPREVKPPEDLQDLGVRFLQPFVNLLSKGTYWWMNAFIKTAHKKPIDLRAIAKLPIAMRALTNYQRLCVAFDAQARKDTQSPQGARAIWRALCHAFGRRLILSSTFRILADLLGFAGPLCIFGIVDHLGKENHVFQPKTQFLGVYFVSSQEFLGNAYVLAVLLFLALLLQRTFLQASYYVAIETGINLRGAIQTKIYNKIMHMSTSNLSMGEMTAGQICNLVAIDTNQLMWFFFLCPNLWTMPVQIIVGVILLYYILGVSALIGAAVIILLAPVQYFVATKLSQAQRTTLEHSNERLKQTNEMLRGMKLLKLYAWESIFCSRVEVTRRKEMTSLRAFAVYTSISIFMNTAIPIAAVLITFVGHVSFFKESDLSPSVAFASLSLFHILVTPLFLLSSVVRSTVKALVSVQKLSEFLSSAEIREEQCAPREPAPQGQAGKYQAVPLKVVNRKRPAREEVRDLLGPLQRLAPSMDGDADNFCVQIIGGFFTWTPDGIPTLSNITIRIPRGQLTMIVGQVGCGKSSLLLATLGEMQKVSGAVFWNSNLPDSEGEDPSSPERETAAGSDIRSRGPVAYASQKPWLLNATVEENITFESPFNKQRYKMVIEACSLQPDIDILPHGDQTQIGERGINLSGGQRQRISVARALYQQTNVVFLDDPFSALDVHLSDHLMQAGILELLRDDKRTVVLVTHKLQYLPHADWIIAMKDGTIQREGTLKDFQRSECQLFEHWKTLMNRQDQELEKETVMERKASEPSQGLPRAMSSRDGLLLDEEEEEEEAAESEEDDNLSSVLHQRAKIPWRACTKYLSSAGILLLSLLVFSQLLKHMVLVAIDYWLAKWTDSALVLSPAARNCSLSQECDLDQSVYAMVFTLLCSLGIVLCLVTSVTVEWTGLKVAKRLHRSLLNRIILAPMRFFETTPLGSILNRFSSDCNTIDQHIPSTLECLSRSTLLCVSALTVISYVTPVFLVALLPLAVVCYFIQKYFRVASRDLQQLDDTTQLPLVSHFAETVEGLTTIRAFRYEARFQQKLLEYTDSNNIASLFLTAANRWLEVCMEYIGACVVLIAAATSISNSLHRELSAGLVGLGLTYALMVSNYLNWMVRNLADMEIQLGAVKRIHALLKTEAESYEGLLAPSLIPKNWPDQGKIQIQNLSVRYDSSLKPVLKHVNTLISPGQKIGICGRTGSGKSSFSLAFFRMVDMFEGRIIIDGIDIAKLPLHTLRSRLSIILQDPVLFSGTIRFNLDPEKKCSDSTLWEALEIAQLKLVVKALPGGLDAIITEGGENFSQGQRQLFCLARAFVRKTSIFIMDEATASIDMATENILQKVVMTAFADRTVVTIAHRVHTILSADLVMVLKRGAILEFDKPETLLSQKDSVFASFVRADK", "format": "binding, hamster", "conditions": "10 μM CV-8814"}, "Sodium Channel, Site 2": {"test_system": "Sodium Channel, Site 2", "format": "binding, rat", "conditions": "10 μM CV-8814"}, "TAC mice [8]": {"test_system": "TAC mice", "experiment": "TAC mice: echocardiography", "format": "in vivo"}, "[9]": {"test_system": "Glycine, Strychnine-Sensitive", "format": "binding, rat", "conditions": "10 μM CV-8814"}, "Transporter, GABA": {"test_system": "Transporter, GABA", "format": "binding, rat", "conditions": "10 μM CV-8814"}, "Glutamate, NMDA, Agonism": {"test_system": "Glutamate, NMDA, Agonism", "format": "binding, rat", "conditions": "10 μM CV-8814"}, "Glutamate, Kainate": {"test_system": "Glutamate, Kainate", "format": "binding, rat", "conditions": "10 μM CV-8814"}, "[10]": {"test_system": "Glutamate, NMDA, Polyamine", "format": "binding, rat", "conditions": "10 μM CV-8814"}, "Phosphodiesterase PDE4": {"test_system": "Phosphodiesterase PDE4", "format": "biochemical, human", "conditions": "10 μM CV-8814"}, "[11]": {"test_system": "Calcium Channel L-Type, Dihydropyridine", "format": "binding, rat", "conditions": "10 μM CV-8814"}, "[12]": {"test_system": "GABAA, Chloride Channel, TBOB", "format": "binding, rat", "conditions": "10 μM CV-8814"}, "TAC mice [13]": {"test_system": "TAC mice", "experiment": "TAC mice: left ventricular pressure with Mikro-tip catheter", "format": "in vivo", "conditions": "end of 6-week treatment"}, "[14]": {"test_system": "Protein Serine/Threonine Kinase, PKC, Non-selective", "format": "biochemical, rat", "conditions": "10 μM CV-8814"}, "[15]": {"conditions": "TMZ 6, NA 2.4, CV-8814 7.5, CV-8972 10 mg/kg/day"}}, "data": [{"smiles": "COc1ccc(CN2CCN(CCO)CC2)c(OC)c1OC", "note": "[CV-8814, 2-(4-(2,3,4-trimethoxybenzyl)piperazin-1-yl)ethan-1-ol]", "values": [{"measurement": "Inhibition", "setting": "Glutamate, AMPA", "result": "< 50", "unit": "%"}, {"measurement": "Inhibition", "setting": "[1]", "result": "< 50", "unit": "%"}, {"measurement": "cardiac remodeling in TAC mice (in words)", "setting": "TAC mice [2]; [15]", "result": "effectively inhibited cardiac remodeling"}, {"measurement": "cardiac mass", "setting": "TAC mice [2]; TAC mice, TMZ 6, CV-8814 7.5, CV-8972 10 mg/kg/day, osmotic minipump", "result": "227 ± 12", "unit": "mg"}, {"measurement": "heart weight to body weight ratio", "setting": "TAC mice [2]; TAC mice, TMZ 6, NA 2.4, CV-8814 7.5, CV-8972 10 mg/kg/day, subcutaneous osmotic minipump", "result": "7.6 ± 0.4", "unit": "mg/g"}, {"measurement": "Inhibition", "setting": "Nicotinic Acetylcholine", "result": "< 50", "unit": "%"}, {"measurement": "Inhibition", "setting": "[3]", "result": "< 50", "unit": "%"}, {"measurement": "Inhibition", "setting": "[4]", "result": "< 50", "unit": "%"}, {"measurement": "Inhibition", "setting": "[5]", "result": "< 50", "unit": "%"}, {"measurement": "Inhibition", "setting": "Phosphodiesterase PDE3", "result": "< 50", "unit": "%"}, {"measurement": "Inhibition", "setting": "Transporter, Adenosine", "result": "< 50", "unit": "%"}, {"measurement": "Inhibition", "setting": "[6]", "result": "< 50", "unit": "%"}, {"measurement": "Inhibition", "setting": "[7]", "result": "< 50", "unit": "%"}, {"measurement": "inhibition at 10 µM", "setting": "Potassium Channel [KATP]", "result": "< 50", "unit": "%"}, {"measurement": "Inhibition", "setting": "Sodium Channel, Site 2", "result": "< 50", "unit": "%"}, {"measurement": "EF (in words)", "setting": "TAC mice [8]; 3-weeks after TAC", "result": "significantly increased"}, {"measurement": "IVRT", "setting": "TAC mice [8]; 3-weeks after TAC", "result": "33 ± 1", "unit": "ms"}, {"measurement": "IVSd", "setting": "TAC mice [8]; 3-weeks after TAC", "result": "1.27±0.02", "unit": "mm"}, {"measurement": "LV mass", "setting": "TAC mice [8]; 3-weeks after TAC", "result": "152 ± 9", "unit": "mg"}, {"measurement": "left ventricular FS", "setting": "TAC mice [8]; 3-weeks after TAC, CV-8814 7.5, CV-8972 10 mg/kg/day", "result": "46%±2%"}, {"measurement": "IVRT", "setting": "TAC mice [8]; 6-weeks after TAC", "result": "28 ± 2", "unit": "ms"}, {"measurement": "IVSd", "setting": "TAC mice [8]; 6-weeks after TAC", "result": "1.26±0.04", "unit": "mm"}, {"measurement": "left ventricular FS", "setting": "TAC mice [8]; 6-weeks after TAC (end of the experiment)", "result": "44%±3%"}, {"measurement": "cardiac functions in TAC mice (in words)", "setting": "TAC mice [8]; conclusion, 6 weeks treatment", "result": "improved cardiac functions"}, {"measurement": "EF (in words)", "setting": "TAC mice [8]; to the end of the study (6 weeks)", "result": "protective effect was sustained to the end of the study"}, {"measurement": "Inhibition", "setting": "[9]", "result": "< 50", "unit": "%"}, {"measurement": "Inhibition", "setting": "Transporter, GABA", "result": "< 50", "unit": "%"}, {"measurement": "Inhibition", "setting": "Glutamate, NMDA, Agonism", "result": "< 50", "unit": "%"}, {"measurement": "Inhibition", "setting": "Glutamate, Kainate", "result": "< 50", "unit": "%"}, {"measurement": "Inhibition", "setting": "[10]", "result": "< 50", "unit": "%"}, {"measurement": "Inhibition", "setting": "Phosphodiesterase PDE4", "result": "< 50", "unit": "%"}, {"measurement": "Inhibition", "setting": "[11]", "result": "< 50", "unit": "%"}, {"measurement": "Inhibition", "setting": "[12]", "result": "< 50", "unit": "%"}, {"measurement": "+dp/dtm", "setting": "TAC mice [13]", "result": "4572±268", "unit": "mm Hg/sec"}, {"measurement": "left ventricular developed pressure (LVDP)", "setting": "TAC mice [13]; [15]", "result": "123±8", "unit": "mm Hg"}, {"measurement": "Inhibition", "setting": "[14]", "result": "< 50", "unit": "%"}]}]}
